# Columns and labels:
# [1] = Phase 1 clinical trial, single ascending dose (SAD) pharmacokinetics; type: in vivo, human; conditions: healthy volunteers; for AUC(0-inf) / Cmax / half-life: human, in vivo, po
# Description: Pharmacokinetic data are presented below.
# [2] = human, in vivo, 10 days
# Description: This Phase 1 trial was a first-in-human, randomized, double-blind, placebo-controlled trial with a 3:1 randomization of I-1 and placebo. The trial was comprised of single ascending dose (SAD) and multiple ascending dose (MAD) protocols. MAD drug exposure was 10 days of twice-per-day (BID) administration.
# A total of 54 healthy volunteers were randomized across two cohorts of varying doses: 41 subjects received I-1 and 13 subjects received placebo.
# Thirty-one (31) subjects were randomized to varying doses: 23 subjects received I-1 and 8 subjects received placebo.
# [3] = 100 mg, oral single dose 100 mg
# [4] = 200 mg, oral single dose 200 mg
# [5] = 400 mg, oral single dose 400 mg
# [6] = 700 mg, oral single dose 700 mg
# [7] = 1200 mg, oral single dose 1200 mg
structure (smiles),measurement,setting,value
CC(C)(O)c1nc2ccccc2cc1N [I-1],AUCinf,[1]; oral single dose 20 mg,50.0 ng·h/mL
same,AUCinf,[1]; oral single dose 50 mg,156 ng·h/mL
same,AUCinf,[1]; oral single dose 100 mg,433 ng·h/mL
same,AUCinf,[1]; oral single dose 200 mg,1140 ng·h/mL
same,AUCinf,[1]; oral single dose 400 mg,2730 ng·h/mL
same,AUCinf,[1]; oral single dose 700 mg,6710 ng·h/mL
same,AUCinf,[1]; oral single dose 1200 mg,14500 ng·h/mL
same,AUC(0-inf),"[1]; 20 mg, oral single dose 20 mg",~50 ng·h/mL
same,Cmax,"[1]; 20 mg, oral single dose 20 mg",~26.4 ng/mL
same,AUC(0-inf),"[1]; 50 mg, oral single dose 50 mg",~156 ng·h/mL
same,Cmax,"[1]; 50 mg, oral single dose 50 mg",~56.7 ng/mL
same,AUC(0-inf),[1]; [3],~433 ng·h/mL
same,Cmax,[1]; [3],~140 ng/mL
same,half-life,[1]; [3],211 min
same,AUC(0-inf),[1]; [4],~1140 ng·h/mL
same,Cmax,[1]; [4],~459 ng/mL
same,half-life,[1]; [4],362 min
same,AUC(0-inf),[1]; [5],~2730 ng·h/mL
same,Cmax,[1]; [5],~869 ng/mL
same,half-life,[1]; [5],369 min
same,AUC(0-inf),[1]; [6],~6710 ng·h/mL
same,Cmax,[1]; [6],~2020 ng/mL
same,half-life,[1]; [6],440 min
same,AUC(0-inf),[1]; [7],~14500 ng·h/mL
same,Cmax,[1]; [7],~4220 ng/mL
same,half-life,[1]; [7],461 min
same,"Influenza like illness, N subjects",[2],0

# — patent US12064516B2, “Pharmaceutical formulations and uses thereof” (Aldeyra Therapeutics, Inc., priority 2020, dated 2024)
